Reference: ChEMBL document CHEMBL6127128, “Discovery of the First-in-Class Dual-Target ROCK/HDAC Inhibitor with Potent Antitumor Efficacy in Vivo That Trigger Antitumor Immunity” (J Med Chem, 2024)
pIC50: −log10 of the molar value. The source made the active and inactive calls. The rule behind the calls is not given here.

Assays:
4T1 [1] = experiment: Antitumor immunity against mouse 4T1 cells implanted in Balb/c mouse assessed as increase in CD40+ dendritic cells in tumor tissue at 25 mg/kg, po administered daily for 15 days by immunohistochemistry; format: functional, organism-based; conditions: time 15.0 day
Histone deacetylase 1 = Histone deacetylase 1 (Homo sapiens, UniProt Q13547); experiment: Inhibition of HDAC1 (unknown origin) using Ac-Leu-Gly-Lys(Ac)-AMC as substrate preincubated for 5 mins followed by substrate addition for 30 mins and measured following trypsin addition for 30 mins by fluorescence based analysis
Chain of Histone deacetylase 1 (Q13547 whole entry): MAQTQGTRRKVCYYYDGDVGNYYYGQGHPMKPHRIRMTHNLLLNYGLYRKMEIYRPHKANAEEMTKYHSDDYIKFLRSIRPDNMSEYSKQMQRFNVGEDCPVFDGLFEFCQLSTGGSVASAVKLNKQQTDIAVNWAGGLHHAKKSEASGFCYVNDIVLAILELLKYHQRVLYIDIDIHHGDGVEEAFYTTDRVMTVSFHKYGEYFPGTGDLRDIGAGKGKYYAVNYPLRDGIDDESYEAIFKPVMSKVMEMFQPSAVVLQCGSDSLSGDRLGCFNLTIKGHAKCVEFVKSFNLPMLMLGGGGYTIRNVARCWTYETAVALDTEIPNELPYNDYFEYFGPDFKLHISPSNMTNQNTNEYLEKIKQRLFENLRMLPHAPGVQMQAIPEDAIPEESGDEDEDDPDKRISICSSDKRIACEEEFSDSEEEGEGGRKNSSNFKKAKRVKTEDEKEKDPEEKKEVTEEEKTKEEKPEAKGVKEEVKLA

[2] = Chemical stability of the compound in PBS buffer at pH 7.4 measured after 10 days; format: physicochemical; conditions: time 10 day, read-out: Stability
[3] = Toxicity against Balb/c mouse implanted with mouse 4T1 cells assessed as effect on morphological changes in spleen at 25 to 50 mg/kg, po administered daily for 15 days by Hematoxylin-Eosin staining based analysis; format: organism-based; conditions: in vivo, 360 h, dose 25-50 mg/kg, time 15 day
4T1 [4] = experiment: Antitumor immunity against mouse 4T1 cells implanted in Balb/c mouse assessed as increase in CD4+ T cells in tumor tissue at 50 mg/kg, po administered daily for 15 days by flow cytometry relative to SAHA; format: functional; conditions: time 15 day
[5] = Oral bioavailability in Balb/c mouse at 50 mg/kg measured for 24 hrs by LC-MS/MS analysis; format: ADME, organism-based; conditions: in vivo
[6] = Tmax in Balb/c mouse at 50 mg/kg, po measured for 24 hrs by LC-MS/MS analysis; format: ADME, organism-based; conditions: in vivo
4T1 [7] = experiment: Antitumor immunity against mouse 4T1 cells implanted in Balb/c mouse assessed as increase in CD3+ T cells in tumor tissue at 50 mg/kg, po administered daily for 15 days by flow cytometry relative to SAHA; format: functional; conditions: time 15 day
4T1 [8] = experiment: Antitumor immunity against mouse 4T1 cells implanted in Balb/c mouse assessed as increase in CD86+ dendritic cells in tumor tissue at 50 mg/kg, po administered daily for 15 days by immunohistochemistry relative to SAHA; format: functional; conditions: time 15 day
Histone deacetylase 4 = Histone deacetylase 4 (Homo sapiens, UniProt P56524); experiment: Inhibition of HDAC4 (unknown origin) using Ac-Leu-Gly-Lys(tfa)-AMC as substrate preincubated for 5 mins followed by substrate addition for 30 mins and measured following trypsin addition for 30 mins by fluorescence based analysis
Chain of Histone deacetylase 4 (P56524 whole entry): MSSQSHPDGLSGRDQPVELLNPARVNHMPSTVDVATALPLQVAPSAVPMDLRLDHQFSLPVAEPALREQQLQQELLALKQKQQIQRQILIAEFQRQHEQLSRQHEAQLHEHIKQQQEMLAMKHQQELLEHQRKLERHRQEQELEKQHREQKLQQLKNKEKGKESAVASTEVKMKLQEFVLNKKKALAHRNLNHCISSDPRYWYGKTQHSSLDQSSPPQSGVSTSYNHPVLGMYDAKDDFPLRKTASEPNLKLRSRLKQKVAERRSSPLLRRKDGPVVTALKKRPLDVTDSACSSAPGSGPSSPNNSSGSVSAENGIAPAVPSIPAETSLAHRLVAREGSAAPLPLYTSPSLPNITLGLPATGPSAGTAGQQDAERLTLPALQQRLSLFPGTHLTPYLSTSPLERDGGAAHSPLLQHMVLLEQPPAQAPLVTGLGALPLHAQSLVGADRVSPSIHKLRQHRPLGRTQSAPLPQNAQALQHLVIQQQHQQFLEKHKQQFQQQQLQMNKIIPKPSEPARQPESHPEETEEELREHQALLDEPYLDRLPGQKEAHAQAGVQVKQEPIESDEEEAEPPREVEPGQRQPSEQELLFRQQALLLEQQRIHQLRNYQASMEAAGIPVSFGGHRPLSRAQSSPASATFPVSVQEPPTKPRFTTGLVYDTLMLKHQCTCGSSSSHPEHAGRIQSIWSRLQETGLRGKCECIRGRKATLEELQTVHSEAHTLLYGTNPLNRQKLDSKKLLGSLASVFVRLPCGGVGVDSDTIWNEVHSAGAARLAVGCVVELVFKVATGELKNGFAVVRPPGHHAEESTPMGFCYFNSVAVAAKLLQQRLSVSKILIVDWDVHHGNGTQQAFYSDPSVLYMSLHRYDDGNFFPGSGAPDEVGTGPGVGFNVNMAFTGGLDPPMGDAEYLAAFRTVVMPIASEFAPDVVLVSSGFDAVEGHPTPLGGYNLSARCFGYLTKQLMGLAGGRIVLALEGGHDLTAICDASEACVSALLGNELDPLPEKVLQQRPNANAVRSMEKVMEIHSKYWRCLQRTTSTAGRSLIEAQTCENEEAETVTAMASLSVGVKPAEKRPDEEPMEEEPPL

[9] = Toxicity against Balb/c mouse implanted with mouse 4T1 cells assessed as effect on morphological changes in liver at 25 to 50 mg/kg, po administered daily for 15 days by Hematoxylin-Eosin staining based analysis; format: organism-based; conditions: in vivo, 360 h, dose 25-50 mg/kg, time 15 day
[10] = AUC (0 to infinity) in Balb/c mouse at 1 mg/kg, iv measured for 24 hrs by LC-MS/MS analysis; format: ADME, organism-based; conditions: in vivo
[11] = target: Rho-associated protein kinase 1 (Homo sapiens, UniProt Q13464); experiment: Inhibition of N-terminal GST-tagged human recombinant ROCK1 (17 to 535 residues) expressed in baculovirus-infected Sf9 cells by HTRF KinEASE assay
Chain of Rho-associated protein kinase 1 (Q13464 whole entry, the tested form may be a part): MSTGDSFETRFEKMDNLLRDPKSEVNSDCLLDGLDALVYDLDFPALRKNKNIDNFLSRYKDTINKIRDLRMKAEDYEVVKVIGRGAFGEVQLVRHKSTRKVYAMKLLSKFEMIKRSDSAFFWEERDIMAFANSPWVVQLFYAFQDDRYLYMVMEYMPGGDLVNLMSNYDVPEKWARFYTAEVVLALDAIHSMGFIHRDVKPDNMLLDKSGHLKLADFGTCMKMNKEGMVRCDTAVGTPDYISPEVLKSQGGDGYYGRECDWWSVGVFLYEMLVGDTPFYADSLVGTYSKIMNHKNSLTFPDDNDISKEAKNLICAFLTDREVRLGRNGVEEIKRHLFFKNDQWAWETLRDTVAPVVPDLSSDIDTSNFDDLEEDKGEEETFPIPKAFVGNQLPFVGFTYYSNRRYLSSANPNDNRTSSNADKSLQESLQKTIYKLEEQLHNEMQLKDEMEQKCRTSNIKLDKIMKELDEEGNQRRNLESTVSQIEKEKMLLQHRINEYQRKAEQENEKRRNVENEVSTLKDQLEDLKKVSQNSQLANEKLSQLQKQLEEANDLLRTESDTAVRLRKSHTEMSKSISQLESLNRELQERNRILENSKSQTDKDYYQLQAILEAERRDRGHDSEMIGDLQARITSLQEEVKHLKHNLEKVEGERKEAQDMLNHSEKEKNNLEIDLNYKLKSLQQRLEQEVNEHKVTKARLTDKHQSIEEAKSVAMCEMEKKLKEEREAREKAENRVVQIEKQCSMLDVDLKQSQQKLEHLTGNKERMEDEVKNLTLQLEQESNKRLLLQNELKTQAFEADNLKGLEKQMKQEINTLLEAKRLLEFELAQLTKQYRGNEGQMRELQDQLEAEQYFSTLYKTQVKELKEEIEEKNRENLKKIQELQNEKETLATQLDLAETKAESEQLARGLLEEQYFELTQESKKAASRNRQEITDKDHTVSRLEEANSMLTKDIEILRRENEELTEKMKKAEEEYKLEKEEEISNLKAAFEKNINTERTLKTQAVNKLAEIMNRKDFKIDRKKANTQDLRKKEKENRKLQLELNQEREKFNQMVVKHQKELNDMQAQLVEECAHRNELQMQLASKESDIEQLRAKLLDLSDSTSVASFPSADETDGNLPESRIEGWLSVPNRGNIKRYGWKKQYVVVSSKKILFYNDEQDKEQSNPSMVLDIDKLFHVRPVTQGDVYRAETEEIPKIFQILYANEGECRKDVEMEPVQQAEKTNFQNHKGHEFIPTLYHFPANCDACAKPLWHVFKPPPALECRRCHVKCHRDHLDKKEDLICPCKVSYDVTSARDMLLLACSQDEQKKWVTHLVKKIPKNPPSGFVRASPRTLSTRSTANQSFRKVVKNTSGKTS

[12] = Toxicity against Balb/c mouse implanted with mouse 4T1 cells assessed as effect on morphological changes in lung at 25 to 50 mg/kg, po administered daily for 15 days by Hematoxylin-Eosin staining based analysis; format: organism-based; conditions: in vivo, 360 h, dose 25-50 mg/kg, time 15 day
MDA-MB-231 = experiment: Induction of immunogenic cell death-associated DAMP release in human MDA-MB-231 cells assessed as increase in extracellular HMGB1 release by mesuring increase in HMGB1 level in medium supernatant at 10 uM incubated for 24 hrs by ELISA; format: functional, cell-based
4T1 [13] = experiment: Antitumor immunity against mouse 4T1 cells implanted in Balb/c mouse assessed as increase in CD4+ T cells in tumor tissue at 25 mg/kg, po administered daily for 15 days by flow cytometry; format: functional, organism-based; conditions: time 15.0 day
4T1 [14] = experiment: Antitumor immunity against mouse 4T1 cells implanted in Balb/c mouse assessed as increase in CD86+ dendritic cells in tumor tissue at 25 mg/kg, po administered daily for 15 days by immunohistochemistry; format: functional, organism-based; conditions: time 15.0 day
4T1 [15] = experiment: Antitumor immunity against mouse 4T1 cells implanted in Balb/c mouse assessed as increase in CD8+ T cells in tumor tissue at 25 mg/kg, po administered daily for 15 days by flow cytometry; format: functional, organism-based; conditions: time 15.0 day
Mus musculus [16] = experiment: Induction of immunogenic cell death-associated DAMP release in tumor of Balb/c mouse implanted with mouse 4T1 cells assessed as extranuclear diffusion of HMGB1 by measuring decrease in red fluorescence aggregates at 25 to 50 mg/kg, po administered daily for 15 days by immunofluorescence analysis; format: functional, organism-based; conditions: dose 25-50 mg/kg, time 15.0 day
Histone deacetylase 3 = Histone deacetylase 3 (Homo sapiens, UniProt O15379); experiment: Inhibition of HDAC3 (unknown origin) using Ac-Leu-Gly-Lys(Ac)-AMC as substrate preincubated for 5 mins followed by substrate addition for 30 mins and measured following trypsin addition for 30 mins by fluorescence based analysis
Chain of Histone deacetylase 3 (O15379 whole entry): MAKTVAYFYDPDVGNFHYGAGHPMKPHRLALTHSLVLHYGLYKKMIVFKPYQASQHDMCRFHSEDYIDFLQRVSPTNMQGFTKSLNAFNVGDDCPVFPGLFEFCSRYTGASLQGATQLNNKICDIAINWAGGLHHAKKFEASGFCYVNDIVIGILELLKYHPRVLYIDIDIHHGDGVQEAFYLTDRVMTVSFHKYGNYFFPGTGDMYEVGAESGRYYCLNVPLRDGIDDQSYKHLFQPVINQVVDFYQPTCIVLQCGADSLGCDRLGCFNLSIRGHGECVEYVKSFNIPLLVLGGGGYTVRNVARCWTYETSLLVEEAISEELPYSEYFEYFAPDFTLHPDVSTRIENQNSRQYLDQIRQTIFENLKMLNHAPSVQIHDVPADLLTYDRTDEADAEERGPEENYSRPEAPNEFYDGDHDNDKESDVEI

4T1 [17] = experiment: Antitumor activity against mouse 4T1 cells implanted in Balb/c mouse assessed as tumor weight at 50 mg/kg, po administered daily for 15 days; format: functional; conditions: time 15 day
Mus musculus [18] = experiment: Induction of immunogenic cell death-associated DAMP release in tumor of Balb/c mouse implanted with mouse 4T1 cells assessed as increase in CRT expression at 25 to 50 mg/kg, po administered daily for 15 days by immunofluorescence analysis; format: functional, organism-based; conditions: dose 25-50 mg/kg, time 15.0 day

- pIC50 (Histone deacetylase 1): 8.04
- remaining at 240 h [2]: 98.5%
- bioavailability [5]: 0.13%
- Tmax [6]: 1.8 min
- pIC50 (Histone deacetylase 4): < 5.00
- AUC(0-inf) [10]: 89.3 ng·h/mL
- pIC50 [11]: 7.24
- pIC50 (Histone deacetylase 3): 8.20
Compound: O=C(CCCCCCNC(=O)c1cc2cc(-c3cn[nH]c3)ccc2s1)NO
- Activity (4T1 [1]): Active
- Activity [3]: Non-Toxic
- fold change (FC) (4T1 [4]): 1.82
- fold change (FC) (4T1 [7]): 1.36
- fold change (FC) (4T1 [8]): 1.82
- Activity [9]: Non-Toxic
- Activity [12]: Non-Toxic
- Activity (MDA-MB-231): Active
- Activity (4T1 [13]): Active
- Activity (4T1 [14]): Active
- Activity (4T1 [15]): Active
- Activity (Mus musculus [16]): Active
- Activity (4T1 [17]): 0.16 g
- Activity (Mus musculus [18]): Active
